The results in this text go back to ChEMBL document CHEMBL1201862, “PubChem BioAssay data set” (2004).

The source made the active and inactive calls.

Assay type in all cases: functional
For assay [1], the target named is T1, Microphthalmia-associated transcription factor (Homo sapiens, UniProt O75030).
T1 sequence (O75030 whole entry): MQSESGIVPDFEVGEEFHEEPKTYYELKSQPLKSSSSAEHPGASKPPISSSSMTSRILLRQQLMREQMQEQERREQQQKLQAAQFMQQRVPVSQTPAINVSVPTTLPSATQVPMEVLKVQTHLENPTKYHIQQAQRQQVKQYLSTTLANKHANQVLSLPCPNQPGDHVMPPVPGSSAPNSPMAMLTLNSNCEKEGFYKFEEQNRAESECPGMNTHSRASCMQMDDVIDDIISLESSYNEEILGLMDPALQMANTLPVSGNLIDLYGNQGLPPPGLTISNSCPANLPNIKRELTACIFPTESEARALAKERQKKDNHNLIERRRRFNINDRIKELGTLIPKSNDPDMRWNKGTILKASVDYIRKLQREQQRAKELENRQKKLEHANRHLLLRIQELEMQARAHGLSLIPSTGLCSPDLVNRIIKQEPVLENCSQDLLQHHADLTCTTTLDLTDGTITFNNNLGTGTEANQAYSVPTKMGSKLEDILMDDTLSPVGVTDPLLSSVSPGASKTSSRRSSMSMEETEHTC
As to the kind of experiment: TRPM1 promoter luciferase signal decrease, dose response, MITF inhibitor project, cell-based, SK-MEL-5, cherry-picked, set 3 (AID 493073).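 Note: SK-MEL-5 melanoma cells with luciferase driven by the MITF target TRPM1 promoter.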

Assay [2] in a line: growth suppression of beta-catenin-knockout colon cells, dose response, cell-based, HCT116, human colon tumor (AID 1045).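 Note: HCT116 colon tumor cells with beta catenin knocked out; cells exposed to compound for 60 hours.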
Assay [3] deals with T2, Apoptotic protease-activating factor 1 (Homo sapiens, UniProt O14727).
T2 sequence (O14727 whole entry): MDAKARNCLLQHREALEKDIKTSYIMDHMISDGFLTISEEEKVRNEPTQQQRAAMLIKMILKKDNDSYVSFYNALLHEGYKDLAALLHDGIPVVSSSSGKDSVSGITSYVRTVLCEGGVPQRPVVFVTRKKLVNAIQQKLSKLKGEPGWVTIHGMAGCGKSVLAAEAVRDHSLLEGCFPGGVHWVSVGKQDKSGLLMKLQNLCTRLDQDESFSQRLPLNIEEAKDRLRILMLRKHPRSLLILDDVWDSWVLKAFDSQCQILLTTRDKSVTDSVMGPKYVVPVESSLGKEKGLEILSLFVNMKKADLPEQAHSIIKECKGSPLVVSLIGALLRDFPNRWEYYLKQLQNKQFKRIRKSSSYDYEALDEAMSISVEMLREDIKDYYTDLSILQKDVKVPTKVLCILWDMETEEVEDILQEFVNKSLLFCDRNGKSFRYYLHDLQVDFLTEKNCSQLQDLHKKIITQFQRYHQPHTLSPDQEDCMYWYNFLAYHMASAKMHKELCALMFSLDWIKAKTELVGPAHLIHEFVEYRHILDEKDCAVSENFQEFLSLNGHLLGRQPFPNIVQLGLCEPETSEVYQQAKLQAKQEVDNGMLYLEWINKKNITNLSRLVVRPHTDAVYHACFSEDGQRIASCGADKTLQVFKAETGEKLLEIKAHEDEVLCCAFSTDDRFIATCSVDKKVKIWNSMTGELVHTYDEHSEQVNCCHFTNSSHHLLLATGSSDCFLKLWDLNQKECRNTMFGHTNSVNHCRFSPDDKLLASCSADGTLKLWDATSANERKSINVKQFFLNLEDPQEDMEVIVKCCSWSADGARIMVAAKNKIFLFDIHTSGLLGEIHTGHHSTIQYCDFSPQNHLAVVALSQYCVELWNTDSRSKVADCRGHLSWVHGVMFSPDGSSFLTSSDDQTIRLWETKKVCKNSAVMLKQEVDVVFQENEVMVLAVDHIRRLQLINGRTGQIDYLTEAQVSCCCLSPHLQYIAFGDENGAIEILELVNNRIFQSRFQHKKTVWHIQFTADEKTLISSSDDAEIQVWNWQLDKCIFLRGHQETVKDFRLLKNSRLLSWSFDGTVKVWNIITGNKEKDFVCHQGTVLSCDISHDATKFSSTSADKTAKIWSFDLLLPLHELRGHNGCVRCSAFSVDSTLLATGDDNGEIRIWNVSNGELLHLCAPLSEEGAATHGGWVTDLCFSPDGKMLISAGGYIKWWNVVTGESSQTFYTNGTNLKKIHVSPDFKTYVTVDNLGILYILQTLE

The target of assay [4] is Glycogen synthase kinase-3 beta (Homo sapiens, UniProt P49841).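 Note: value comes from a broad kinome profiling panel, with GSK3B as the panel member.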
In assay [5] the target is Leukocyte tyrosine kinase receptor (Homo sapiens, UniProt P29376). The assay can be described thus: Navigating the Kinome. Panel member name: LTK.
The target in assay [6] is Platelet-derived growth factor receptor alpha (Homo sapiens, UniProt P16234). As to the kind of experiment: Navigating the Kinome. Panel member name: PDGFRA.
Assay [7] addresses Cyclin-dependent kinase 8 (Homo sapiens, UniProt P49336). As to the kind of experiment: Navigating the Kinome. Panel member name: CDK8.
Assay [8] deals with Mitogen-activated protein kinase 14 (Homo sapiens, UniProt Q16539).
Assay [9] concerns the target Dual specificity mitogen-activated protein kinase kinase 1 (Homo sapiens, UniProt Q02750). The assay can be described thus: Navigating the Kinome. Panel member name: MAP2K1.
Assay [10] has as its target Serine/threonine-protein kinase pim-1 (Homo sapiens, UniProt P11309).
Assay [11] has as its target Serine/threonine-protein kinase PAK 4 (Homo sapiens, UniProt O96013).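 Note: value obtained within a kinome profiling panel in which PAK4 was one of the panel members.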
Assay [12] has as its target Dual specificity mitogen-activated protein kinase kinase 2 (Homo sapiens, UniProt P36507). As to the kind of experiment: Navigating the Kinome. Panel member name: MAP2K2.
The target of a further assay is T3, Activin receptor type-1 (Homo sapiens, UniProt Q04771).
T3 sequence (Q04771 whole entry): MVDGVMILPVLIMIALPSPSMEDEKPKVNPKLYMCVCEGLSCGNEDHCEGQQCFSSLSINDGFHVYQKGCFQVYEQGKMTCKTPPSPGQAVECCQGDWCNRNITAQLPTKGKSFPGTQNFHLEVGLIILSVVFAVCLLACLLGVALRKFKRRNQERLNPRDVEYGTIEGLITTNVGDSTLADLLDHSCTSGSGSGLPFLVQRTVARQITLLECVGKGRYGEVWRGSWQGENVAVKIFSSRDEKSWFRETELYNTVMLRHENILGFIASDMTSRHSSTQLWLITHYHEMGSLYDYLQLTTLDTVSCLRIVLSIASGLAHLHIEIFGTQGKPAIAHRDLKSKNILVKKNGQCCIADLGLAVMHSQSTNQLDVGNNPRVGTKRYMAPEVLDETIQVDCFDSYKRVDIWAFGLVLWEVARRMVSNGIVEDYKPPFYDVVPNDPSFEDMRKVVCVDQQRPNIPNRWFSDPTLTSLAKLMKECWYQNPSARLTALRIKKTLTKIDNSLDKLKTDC
The assay can be described thus: Navigating the Kinome. Panel member name: ACVR1.

The target in assay [13] is Vascular endothelial growth factor receptor 2 (Homo sapiens, UniProt P35968).
Chain of Vascular endothelial growth factor receptor 2 (P35968 whole entry): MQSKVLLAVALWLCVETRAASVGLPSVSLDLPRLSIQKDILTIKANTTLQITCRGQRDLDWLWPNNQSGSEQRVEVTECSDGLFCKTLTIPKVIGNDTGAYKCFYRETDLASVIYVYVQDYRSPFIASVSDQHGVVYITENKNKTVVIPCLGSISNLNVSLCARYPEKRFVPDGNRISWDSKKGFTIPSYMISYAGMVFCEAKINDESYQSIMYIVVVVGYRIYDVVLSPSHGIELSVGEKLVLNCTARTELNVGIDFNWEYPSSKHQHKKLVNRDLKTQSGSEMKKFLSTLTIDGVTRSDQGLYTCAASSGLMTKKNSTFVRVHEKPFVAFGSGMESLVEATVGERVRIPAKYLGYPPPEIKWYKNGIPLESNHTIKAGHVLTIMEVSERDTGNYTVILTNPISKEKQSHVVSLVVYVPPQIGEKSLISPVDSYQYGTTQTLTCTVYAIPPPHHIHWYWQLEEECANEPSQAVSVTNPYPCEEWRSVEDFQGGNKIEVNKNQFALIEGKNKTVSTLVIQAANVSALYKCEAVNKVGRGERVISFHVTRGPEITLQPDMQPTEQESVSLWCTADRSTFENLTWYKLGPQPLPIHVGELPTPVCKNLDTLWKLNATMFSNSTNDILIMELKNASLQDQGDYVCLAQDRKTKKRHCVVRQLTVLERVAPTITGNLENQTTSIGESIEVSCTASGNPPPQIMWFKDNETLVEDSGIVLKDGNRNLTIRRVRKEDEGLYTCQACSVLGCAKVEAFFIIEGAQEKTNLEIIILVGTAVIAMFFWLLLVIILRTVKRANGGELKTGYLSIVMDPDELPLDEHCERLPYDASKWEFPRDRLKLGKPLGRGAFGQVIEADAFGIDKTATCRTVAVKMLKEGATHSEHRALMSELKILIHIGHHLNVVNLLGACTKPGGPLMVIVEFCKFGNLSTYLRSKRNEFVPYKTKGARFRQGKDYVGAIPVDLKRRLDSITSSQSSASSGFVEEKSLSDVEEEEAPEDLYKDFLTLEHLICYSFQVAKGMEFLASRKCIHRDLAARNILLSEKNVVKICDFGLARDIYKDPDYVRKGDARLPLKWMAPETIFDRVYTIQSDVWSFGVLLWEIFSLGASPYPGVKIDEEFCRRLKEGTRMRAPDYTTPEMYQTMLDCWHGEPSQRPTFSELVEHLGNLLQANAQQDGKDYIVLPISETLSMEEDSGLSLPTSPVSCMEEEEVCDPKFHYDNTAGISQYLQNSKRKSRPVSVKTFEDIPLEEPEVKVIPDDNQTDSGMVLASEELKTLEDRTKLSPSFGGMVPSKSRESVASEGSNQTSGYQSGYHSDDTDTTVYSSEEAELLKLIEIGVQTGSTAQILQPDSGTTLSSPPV

Chain of Leukocyte tyrosine kinase receptor (P29376 whole entry): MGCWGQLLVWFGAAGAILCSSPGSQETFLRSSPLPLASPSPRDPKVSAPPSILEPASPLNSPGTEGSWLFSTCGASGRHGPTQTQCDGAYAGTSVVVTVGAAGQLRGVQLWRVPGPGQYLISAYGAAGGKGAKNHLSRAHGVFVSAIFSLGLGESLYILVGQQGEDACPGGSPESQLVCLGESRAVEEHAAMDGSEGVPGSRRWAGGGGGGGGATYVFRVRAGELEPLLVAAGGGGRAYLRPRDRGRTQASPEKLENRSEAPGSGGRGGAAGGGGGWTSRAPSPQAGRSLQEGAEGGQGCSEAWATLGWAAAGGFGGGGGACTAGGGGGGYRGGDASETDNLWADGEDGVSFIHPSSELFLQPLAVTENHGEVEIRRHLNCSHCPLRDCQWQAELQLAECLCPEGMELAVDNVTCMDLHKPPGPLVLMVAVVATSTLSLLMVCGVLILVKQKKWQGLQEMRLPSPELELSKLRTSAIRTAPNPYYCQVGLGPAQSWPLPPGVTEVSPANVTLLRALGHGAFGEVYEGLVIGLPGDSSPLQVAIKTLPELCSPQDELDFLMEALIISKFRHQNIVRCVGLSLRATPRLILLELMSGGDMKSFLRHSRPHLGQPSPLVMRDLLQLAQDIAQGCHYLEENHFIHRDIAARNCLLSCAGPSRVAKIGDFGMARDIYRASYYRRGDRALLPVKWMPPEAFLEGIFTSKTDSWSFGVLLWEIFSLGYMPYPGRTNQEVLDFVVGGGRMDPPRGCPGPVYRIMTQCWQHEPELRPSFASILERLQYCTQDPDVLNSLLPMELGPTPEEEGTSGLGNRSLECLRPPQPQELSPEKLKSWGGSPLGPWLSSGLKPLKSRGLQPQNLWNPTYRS
Chain of Serine/threonine-protein kinase PAK 4 (O96013 whole entry): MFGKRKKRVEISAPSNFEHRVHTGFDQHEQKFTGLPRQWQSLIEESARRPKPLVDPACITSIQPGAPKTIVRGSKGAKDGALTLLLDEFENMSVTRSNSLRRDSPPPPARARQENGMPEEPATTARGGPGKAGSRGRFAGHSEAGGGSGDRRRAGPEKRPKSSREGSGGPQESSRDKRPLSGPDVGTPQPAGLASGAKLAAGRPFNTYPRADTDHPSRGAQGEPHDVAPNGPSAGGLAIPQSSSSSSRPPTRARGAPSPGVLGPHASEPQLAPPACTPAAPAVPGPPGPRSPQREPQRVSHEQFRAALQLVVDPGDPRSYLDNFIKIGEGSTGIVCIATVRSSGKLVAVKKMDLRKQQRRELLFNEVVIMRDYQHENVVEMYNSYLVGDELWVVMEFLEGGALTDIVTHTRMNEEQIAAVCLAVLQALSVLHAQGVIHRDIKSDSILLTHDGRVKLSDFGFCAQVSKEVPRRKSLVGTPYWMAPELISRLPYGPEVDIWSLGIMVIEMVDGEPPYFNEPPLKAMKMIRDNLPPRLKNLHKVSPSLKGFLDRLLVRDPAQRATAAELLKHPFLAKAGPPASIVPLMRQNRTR
Chain of Glycogen synthase kinase-3 beta (P49841 whole entry): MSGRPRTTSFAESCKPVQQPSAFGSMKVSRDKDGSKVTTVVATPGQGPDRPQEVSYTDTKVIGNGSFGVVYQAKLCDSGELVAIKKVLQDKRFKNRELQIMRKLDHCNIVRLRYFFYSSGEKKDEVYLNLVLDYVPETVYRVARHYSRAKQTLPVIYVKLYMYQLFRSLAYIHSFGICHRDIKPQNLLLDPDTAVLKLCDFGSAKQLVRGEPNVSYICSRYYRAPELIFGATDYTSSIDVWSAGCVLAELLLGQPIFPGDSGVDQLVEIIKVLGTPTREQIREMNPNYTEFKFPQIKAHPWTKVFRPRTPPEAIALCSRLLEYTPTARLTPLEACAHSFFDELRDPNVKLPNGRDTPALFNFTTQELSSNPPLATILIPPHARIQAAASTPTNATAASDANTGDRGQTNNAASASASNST
Chain of Mitogen-activated protein kinase 14 (Q16539 whole entry): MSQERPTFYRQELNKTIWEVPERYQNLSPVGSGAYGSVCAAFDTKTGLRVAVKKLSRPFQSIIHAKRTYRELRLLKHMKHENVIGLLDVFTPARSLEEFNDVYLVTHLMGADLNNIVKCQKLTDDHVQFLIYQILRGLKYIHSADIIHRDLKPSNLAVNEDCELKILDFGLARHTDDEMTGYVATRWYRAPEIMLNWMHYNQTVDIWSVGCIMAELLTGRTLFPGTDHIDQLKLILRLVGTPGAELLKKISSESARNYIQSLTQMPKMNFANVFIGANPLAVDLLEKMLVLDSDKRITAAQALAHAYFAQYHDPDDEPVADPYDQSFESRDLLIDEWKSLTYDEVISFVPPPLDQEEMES
Chain of Dual specificity mitogen-activated protein kinase kinase 1 (Q02750 whole entry): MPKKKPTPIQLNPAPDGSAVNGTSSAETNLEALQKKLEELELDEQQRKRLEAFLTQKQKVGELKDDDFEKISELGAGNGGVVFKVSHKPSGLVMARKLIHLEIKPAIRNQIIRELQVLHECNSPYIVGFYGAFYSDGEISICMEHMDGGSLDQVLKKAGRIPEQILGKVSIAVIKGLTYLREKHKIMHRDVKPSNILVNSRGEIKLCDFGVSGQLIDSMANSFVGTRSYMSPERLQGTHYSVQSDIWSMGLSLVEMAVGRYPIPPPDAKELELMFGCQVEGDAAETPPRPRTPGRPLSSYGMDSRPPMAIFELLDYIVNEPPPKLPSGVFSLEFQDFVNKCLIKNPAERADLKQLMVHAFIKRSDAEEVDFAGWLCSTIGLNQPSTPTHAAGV
Chain of Serine/threonine-protein kinase pim-1 (P11309 whole entry): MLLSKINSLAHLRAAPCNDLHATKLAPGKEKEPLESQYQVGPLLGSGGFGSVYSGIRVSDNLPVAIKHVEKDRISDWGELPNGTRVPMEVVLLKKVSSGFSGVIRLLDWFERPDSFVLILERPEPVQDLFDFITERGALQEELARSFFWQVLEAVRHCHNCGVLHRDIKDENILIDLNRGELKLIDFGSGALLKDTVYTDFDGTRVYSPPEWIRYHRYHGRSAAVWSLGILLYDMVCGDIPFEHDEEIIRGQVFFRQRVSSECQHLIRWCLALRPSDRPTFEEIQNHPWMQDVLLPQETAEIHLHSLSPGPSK
Chain of Dual specificity mitogen-activated protein kinase kinase 2 (P36507 whole entry): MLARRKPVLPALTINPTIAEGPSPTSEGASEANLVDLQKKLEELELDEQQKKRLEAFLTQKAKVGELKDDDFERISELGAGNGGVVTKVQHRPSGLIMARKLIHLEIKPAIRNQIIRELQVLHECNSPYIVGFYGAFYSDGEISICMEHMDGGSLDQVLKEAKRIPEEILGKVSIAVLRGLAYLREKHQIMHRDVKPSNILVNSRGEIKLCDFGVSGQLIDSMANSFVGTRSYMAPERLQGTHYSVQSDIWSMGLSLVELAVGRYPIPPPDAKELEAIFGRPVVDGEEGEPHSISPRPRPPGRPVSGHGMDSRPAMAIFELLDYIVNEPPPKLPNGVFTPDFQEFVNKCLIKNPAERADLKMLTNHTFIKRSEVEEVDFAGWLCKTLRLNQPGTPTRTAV

For orientation: AC50 means the concentration at which the activity in the assay is half-maximal. Consider `CC(C)CC(=O)NC(c1cccs1)c1ccc2cccnc2c1O` (stereo unspecified), for which the AC50 in assay [1] was 3710 nM (active).

The EC50 is the concentration that produces a half-maximal response. By IC50 is commonly meant the midpoint of a concentration-inhibition curve. In the case of `CCOC(=O)c1ccc(NC2=CC(=O)C(=O)c3ccccc32)cc1`, the half-maximal activity concentration (AC50) in assay [1] was 4300 nM (active). In addition, the EC50 in assay [2] is 13800 nM (active). Besides, the IC50 in assay [3] is 4730 nM (active).

As to `OC(CNCCC1C=Nc2ccccc21)Cn1c2ccc(Cl)cc2c2cc(Cl)ccc21` (stereo unspecified), in assay [2], the EC50 was 2700 nM (active).

Take `CCCCCCCCCCCCCCCC[N+](C)(C)C`: in [3], the half-inhibitory concentration (IC50) is 27500 nM (active).

The Ki is a measure of affinity in units of concentration, obtained from inhibition or displacement. As usually defined, the pKi is −log10 of the Ki, conventionally taken in molar units. Read a low pKi as a large Ki. On to `NC1CCC(Nc2nc(Cl)cc(-c3c[nH]c4ncccc34)n2)CC1` (stereo unspecified), for which the Ki in [4] is 398 nM (active); in assay [5], 126 nM (active); in [6], 1260 nM (active); in [7], 5.01 nM (active); in assay [8], 2000 nM (active); in assay [9], 20 nM (active). Further, the Ki is 126 nM (active) in assay [10]; 39.8 nM (active) in [11]; 31.6 nM (active) in assay [12]; 631 nM (active) at Activin receptor type-1; 794 nM (active) in [13]. For the same compound, the pKi in assay [4] amounted to 6.4; in assay [5] it was 6.9; in assay [6] it was 5.9; in assay [7], 8.3; in assay [8] it was 5.7; in [9], 7.7. Besides, the pKi in assay [10] is 6.9; in assay [11] it was 7.4; in [12] it was 7.5; at Activin receptor type-1, 6.2; in assay [13], 6.1.

Take `O=C(O)C1CN(Cc2ccc(OCc3ccccc3)cc2Cl)C1`: the Ki was > 3980 nM (inactive) in assay [4]; > 2510 nM (inactive) in assay [5]; > 2510 nM (inactive) in assay [6]; > 3980 nM (inactive) in [7]; > 3980 nM (inactive) in [8]; > 3160 nM (inactive) in assay [9]. Besides, the Ki in [10] was > 6310 nM (inactive); in assay [11], > 5010 nM (inactive); in assay [12] it was > 3980 nM (inactive); at Activin receptor type-1, 126 nM (active); in assay [13], > 2510 nM (inactive).

Regarding `COc1ccc(C(=O)c2nccc3cc(OC)c(OC)cc23)cc1OC`, the IC50 in [3] was 24400 nM (active).

For the compound `Cc1ccccc1-c1cc2c(nn1)-c1ccccc1C2=O`, the IC50 in assay [3] is 25500 nM (active).
